In assay [1] the target is T1, recombinant integrin α4β7 (Homo sapiens, UniProt P13612+P26010, DEL724-798).
T1 construct: purchased R&D Systems 5397-A3-050
T1 sequence (P13612 34-970 limits assumed): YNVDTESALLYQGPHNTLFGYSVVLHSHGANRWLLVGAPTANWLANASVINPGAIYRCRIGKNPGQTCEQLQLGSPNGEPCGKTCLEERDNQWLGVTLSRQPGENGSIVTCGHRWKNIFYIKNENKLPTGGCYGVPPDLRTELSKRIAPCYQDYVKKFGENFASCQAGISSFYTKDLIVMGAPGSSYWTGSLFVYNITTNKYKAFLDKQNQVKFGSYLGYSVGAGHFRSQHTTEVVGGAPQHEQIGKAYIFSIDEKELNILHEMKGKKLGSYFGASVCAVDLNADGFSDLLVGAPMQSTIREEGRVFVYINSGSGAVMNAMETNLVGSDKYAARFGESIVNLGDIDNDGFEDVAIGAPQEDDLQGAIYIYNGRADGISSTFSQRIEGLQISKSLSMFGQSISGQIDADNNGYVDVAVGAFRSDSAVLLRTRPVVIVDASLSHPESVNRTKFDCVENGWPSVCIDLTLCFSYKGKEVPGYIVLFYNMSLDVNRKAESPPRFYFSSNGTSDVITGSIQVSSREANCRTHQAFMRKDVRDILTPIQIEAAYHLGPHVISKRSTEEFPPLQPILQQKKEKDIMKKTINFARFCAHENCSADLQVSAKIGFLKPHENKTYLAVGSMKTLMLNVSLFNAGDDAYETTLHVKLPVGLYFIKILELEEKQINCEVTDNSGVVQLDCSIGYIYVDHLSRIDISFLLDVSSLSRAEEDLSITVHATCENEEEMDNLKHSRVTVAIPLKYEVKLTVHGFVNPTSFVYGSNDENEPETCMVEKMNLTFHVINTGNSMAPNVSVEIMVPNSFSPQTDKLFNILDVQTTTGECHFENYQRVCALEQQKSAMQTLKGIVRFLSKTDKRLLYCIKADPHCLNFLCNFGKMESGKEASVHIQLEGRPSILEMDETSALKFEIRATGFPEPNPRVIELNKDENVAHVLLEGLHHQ
T1 sequence (P26010 20-723 limits assumed): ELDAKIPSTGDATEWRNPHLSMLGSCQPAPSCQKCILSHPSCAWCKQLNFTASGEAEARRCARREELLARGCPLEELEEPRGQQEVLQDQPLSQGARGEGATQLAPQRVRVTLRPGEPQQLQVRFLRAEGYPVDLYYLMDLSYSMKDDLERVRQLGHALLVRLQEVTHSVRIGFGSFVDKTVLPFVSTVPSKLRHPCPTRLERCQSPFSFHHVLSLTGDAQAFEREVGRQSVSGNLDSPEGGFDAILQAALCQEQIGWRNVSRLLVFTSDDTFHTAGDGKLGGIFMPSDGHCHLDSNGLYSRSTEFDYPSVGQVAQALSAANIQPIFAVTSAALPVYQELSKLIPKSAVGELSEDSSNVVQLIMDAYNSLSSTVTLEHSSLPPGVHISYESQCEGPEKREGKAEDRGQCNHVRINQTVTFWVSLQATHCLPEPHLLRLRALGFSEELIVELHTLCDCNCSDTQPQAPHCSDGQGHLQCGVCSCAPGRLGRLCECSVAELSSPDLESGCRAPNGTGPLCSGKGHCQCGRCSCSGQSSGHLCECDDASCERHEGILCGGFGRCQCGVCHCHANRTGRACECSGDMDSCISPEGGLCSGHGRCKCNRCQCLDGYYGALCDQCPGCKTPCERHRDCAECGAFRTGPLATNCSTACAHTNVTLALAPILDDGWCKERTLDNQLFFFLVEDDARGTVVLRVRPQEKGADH
In words: Integrin α4β7—MAdCAM-1 ELISA competition assay. The class given is binding. The conditions noted are these: for ELISA Assay Ratio b1/b7: ratio of a4b1 to a4b7 ELISA IC50; for IC50: read-out: ELISA a4b7 Assay IC50. For orientation: In an ELISA, binding on a coated surface is turned into a signal by an enzyme label.

In assay [2] the target is T2, recombinant integrin α4β1 (Homo sapiens, UniProt P05556+P13612).
T2 construct: purchased R&D Systems 5397-A3-050
T2 sequence (P05556 21-728 limits assumed, one chain of several): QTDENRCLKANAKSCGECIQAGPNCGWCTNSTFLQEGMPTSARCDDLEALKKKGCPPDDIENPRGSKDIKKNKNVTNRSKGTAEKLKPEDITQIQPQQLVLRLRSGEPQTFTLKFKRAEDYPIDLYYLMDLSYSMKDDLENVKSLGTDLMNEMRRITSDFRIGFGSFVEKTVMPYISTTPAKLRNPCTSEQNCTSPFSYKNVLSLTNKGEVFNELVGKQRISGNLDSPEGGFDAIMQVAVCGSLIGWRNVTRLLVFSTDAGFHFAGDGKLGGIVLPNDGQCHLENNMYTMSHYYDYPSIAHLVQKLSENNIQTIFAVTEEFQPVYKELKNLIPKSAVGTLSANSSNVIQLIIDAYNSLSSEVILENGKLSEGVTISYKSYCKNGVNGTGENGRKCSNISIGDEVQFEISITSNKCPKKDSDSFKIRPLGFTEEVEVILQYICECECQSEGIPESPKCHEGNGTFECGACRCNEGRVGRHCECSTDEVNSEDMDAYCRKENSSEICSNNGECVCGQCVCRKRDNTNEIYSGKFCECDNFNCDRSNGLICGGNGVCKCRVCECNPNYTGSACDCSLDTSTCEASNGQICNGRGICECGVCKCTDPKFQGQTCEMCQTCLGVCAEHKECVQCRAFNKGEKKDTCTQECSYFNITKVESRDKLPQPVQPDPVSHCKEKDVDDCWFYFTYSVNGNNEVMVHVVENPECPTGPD
In words: Integrin α4β1—VCAM-1 competition ELISA. The conditions noted are these: for IC50: read-out: ELISA a4b1 Assay IC50. Format: binding. The procedure:
Integrin α4β1—VCAM-1 Competition ELISA
The plate was incubated at 4° C. overnight. […] The plate was then incubated for 1 hour at room temperature. The plate was washed three times with wash buffer (50 mM Tris, 100 mM NaCl, 1 mM MnCl2, 0.05% Tween). To each well, 50 μl of compound diluted in assay buffer was added by transfer from a compound serial dilution plate. […] The plate was incubated at room temperature with shaking (300 rpm) for 2 hours to reach binding equilibrium. Then the plate was washed three times in wash buffer and 100 μl anti-human IgG Fc specific-HRP (Abcam, Ab97225) diluted at 1:2000 in assay buffer was added to each well. The plate was incubated at room temperature for 1 hour under agitation.

The source of these data is US11713338B2, “Cyclic peptides multimers targeting α-4-β-7 integrin” (priority 2016, dated 2023).

One may read the IC50 as the concentration at which inhibition is half-maximal. As to `CC(C)C[C@@H]1NC(=O)C[C@H](CCCCN)NC(=O)[C@H](CC2CCCCC2)NC(=O)[C@@H]2CCCN2[C@H](C(=O)NC(C)(C)C)[C@H](C)NC(=O)[C@H]([C@@H](C)O)NC(=O)[C@H](CC(=O)O)NC1=O` [Compound 210], in assay [1], the “ELISA Assay Ratio b1/b7” value worked out at 16.0 and the IC50 is 72 nM. For the same molecule, the half-maximal inhibitory concentration (IC50) in assay [2] amounted to 1150 nM.
For `CC(C)C[C@@H]1NC(=O)[C@H](Cc2ccc(-c3ccccc3)cc2)NC(=O)[C@@H]2C[C@@H](F)CN2[C@H](C(=O)NC(C)(C)C)[C@H](C)NC(=O)[C@H]([C@@H](C)O)NC(=O)[C@H](CC(=O)O)NC1=O` [Compound 46] the same measures were 2.4, 106 nM and 258 nM.
For `CC(C)C[C@@H]1NC(=O)[C@H]2C[C@H](O)CN2C(=O)[C@H](Cc2ccc(CN)cc2)NC(=O)[C@@H]2CCCN2[C@H](C(=O)NC(C)(C)C)[C@H](C)NC(=O)[C@H]([C@@H](C)O)NC(=O)[C@H](CC(=O)O)NC1=O` [Compound 152] the same measures were 13.2, 102 nM and 1350 nM.
In the same order, the values of `CC[C@H](C)[C@@H]1NC(=O)[C@H](CC(=O)O)NC(=O)[C@H](CC(C)C)NC(=O)[C@@H](CCCCN)N(C)C(=O)[C@H](Cc2ccc(O)cc2)NC(=O)[C@@H]2CCCN2[C@H](C(=O)NC(C)(C)C)[C@H](C)NC1=O` [Compound 154] are 22.8, 117 nM and 2660 nM.
For the molecule `CC(C)C[C@@H]1NC(=O)CN(C)C(=O)[C@H](Cc2ccc(I)cc2)NC(=O)[C@@H]2CCCN2[C@H](C(=O)NC(C)(C)C)[C@H](C)NC(=O)[C@H]([C@@H](C)O)NC(=O)[C@H](CC(=O)O)NC1=O` [Compound 107], in assay [1], the “ELISA Assay Ratio b1/b7” value came out at 16.0 and the IC50 was 150 nM. The IC50 in assay [2] amounted to 2390 nM.
For `CC(C)C[C@@H]1NC(=O)[C@H](Cc2csc(-c3ccccn3)n2)NC(=O)[C@@H]2CCCN2[C@H](C(=O)NC(C)(C)C)[C@H](C)NC(=O)[C@H]([C@@H](C)O)NC(=O)[C@H](CC(=O)O)NC1=O` [Compound 95] the same measures were 2.4, 125 nM and 303 nM.
For `CC(C)C[C@@H]1NC(=O)c2ccc(-c3cccc4ncccc34)c(c2)CNC(=O)[C@@H]2CCCN2[C@H](C(=O)NC(C)(C)C)[C@H](C)NC(=O)[C@H]([C@@H](C)O)NC(=O)[C@H](CC(=O)O)NC1=O` [Compound 347] the same measures were 1.3, 23 nM and 30 nM.
With `CC(C)C[C@@H]1NC(=O)[C@H]2CCCCN2C(=O)[C@H](Cc2ccc(O)cc2)N(C)C(=O)[C@@H]2CCCN2[C@H](C(=O)NC(C)(C)C)[C@H](C)NC(=O)[C@H]([C@@H](C)O)NC(=O)[C@H](CC(=O)O)NC1=O` [Compound 148], in assay [2], the IC50 was determined as 105 nM.
On to `CC(C)C[C@@H]1NC(=O)C[C@H](CCCCN)N(C)C(=O)[C@H](CCCCNC(=O)c2cc(C(=O)O)cc(C(=O)NCCCC[C@@H]3NC(=O)[C@@H]4CCCN4[C@H](C(=O)NC(C)(C)C)[C@H](C)NC(=O)[C@H]([C@@H](C)O)NC(=O)[C@H](CC(=O)O)NC(=O)[C@H](CC(C)C)NC(=O)C[C@H](CCCCN)N(C)C3=O)c2)NC(=O)[C@@H]2CCCN2[C@H](C(=O)NC(C)(C)C)[C@H](C)NC(=O)[C@H]([C@@H](C)O)NC(=O)[C@H](CC(=O)O)NC1=O` [Compound 537], for which the “ELISA Assay Ratio β1/β7” value in assay [2] (ratio of ELISA IC50s, α4β1 over α4β7) came out at 0.4.
In the case of `CC(C)C[C@@H]1NC(=O)[C@@H]2C[C@@H](OCc3ccccc3)CN2C(=O)[C@@H]2CCCN2[C@H](C(=O)NC(C)(C)C)[C@H](C)NC(=O)[C@H]([C@@H](C)O)NC(=O)[C@H](CC(=O)O)NC1=O` [Compound 57], in assay [1], the “ELISA Assay Ratio b1/b7” value was 2.5 and the IC50 worked out at 59 nM. Further, in assay [2], the IC50 came to 148 nM.
In the same order, the values of `CC(C)C[C@@H]1NC(=O)C2(CCCC2)NC(=O)[C@@H]2CCCN2[C@H](C(=O)NC(C)(C)C)[C@H](C)NC(=O)[C@H]([C@@H](C)O)NC(=O)[C@H](CC(=O)O)NC1=O` [Compound 88] are 14.9, 11 nM and 166 nM.
For `CC[C@@H](C)[C@@H]1NC(=O)[C@H](CC(=O)O)NC(=O)[C@H](CC(C)C)NC(=O)C[C@H](CCCCN)NC(=O)[C@H](Cc2ccc(CN)cc2)NC(=O)[C@@H]2CCCN2[C@H](C(=O)NC(C)(C)C)[C@H](C)NC1=O` [Compound 285] the same measures were 6.2, 89 nM and 553 nM.
In the same order, the values of `CC(C)C[C@@H]1NC(=O)[C@H](C2CCCCC2)NC(=O)[C@@H]2CCCN2[C@H](C(=O)NC(C)(C)C)[C@H](C)NC(=O)[C@H]([C@@H](C)O)NC(=O)[C@H](CC(=O)O)NC1=O` [Compound 91] are 14.5, 126 nM and 1820 nM.
For `CC(C)C[C@@H]1NC(=O)C[C@H](CCCCN)NC(=O)[C@H](Cc2ccccc2-c2ccc(N3CCNCC3)cc2)NC(=O)[C@@H]2CCCN2[C@H](C(=O)NC(C)(C)C)[C@H](C)NC(=O)[C@H]([C@@H](C)O)NC(=O)[C@H](CC(=O)O)NC1=O` [Compound 271], in assay [1], the “ELISA Assay Ratio b1/b7” value was found to be 34.6. Also, in assay [2], the IC50 is 1150 nM.
In the case of `CC(C)C[C@@H]1NC(=O)[C@H](CCc2ccccc2)NC(=O)[C@@H]2CCCN2[C@H](C(=O)NC(C)(C)C)[C@H](C)NC(=O)[C@H]([C@@H](C)O)NC(=O)[C@H](CC(=O)O)NC1=O` [Compound 6], in assay [1], the “ELISA Assay Ratio b1/b7” value worked out at 1.9 and the IC50 was determined as 103 nM. Besides, the IC50 in assay [2] was 200 nM.
With `CC(C)C[C@@H]1NC(=O)C[C@H](CCCCN)NC(=O)[C@@H](CCCNC(=N)N)NC(=O)[C@@H]2CCCN2[C@H](C(=O)NC(C)(C)C)[C@H](C)NC(=O)[C@H]([C@@H](C)O)NC(=O)[C@H](CC(=O)O)NC1=O` [Compound 217], the IC50 in assay [2] stood at 1090 nM.
Consider `CC(C)C[C@@H]1NC(=O)[C@H]2c3ccccc3CCN2C(=O)[C@@H]2CCCN2[C@H](C(=O)NC(C)(C)C)[C@H](C)NC(=O)[C@H]([C@@H](C)O)NC(=O)[C@H](CC(=O)O)NC1=O` [Compound 98], for which, in assay [2], the IC50 came out at 58 nM.
The same measure, in the same setting: the figure for `CCO[C@H](C)[C@@H]1NC(=O)[C@H](CC(=O)O)NC(=O)[C@H](CC(C)C)NC(=O)[C@H](Cc2ccccc2)NC(=O)[C@@H]2CCCN2[C@H](C(=O)NC(C)(C)C)[C@H](C)NC1=O` [Compound 41] is 106 nM; for `CC(C)C[C@@H]1NC(=O)[C@@H]2CCN2C(=O)C[C@H](CCCCN)NC(=O)[C@@H]2CCCN2[C@H](C(=O)NC(C)(C)C)[C@H](C)NC(=O)[C@H]([C@@H](C)O)NC(=O)[C@H](CC(=O)O)NC1=O` [Compound 319] it is 309 nM; for `CC(C)C[C@@H]1NC(=O)[C@H](Cc2cccnc2)NC(=O)[C@@H]2C[C@@H](O)CN2[C@H](C(=O)NC(C)(C)C)[C@H](C)NC(=O)[C@H]([C@@H](C)O)NC(=O)[C@H](CC(=O)O)NC1=O` [Compound 44] it is 188 nM.
